These results are taken from US7323303B2, “Modified β-lactamases and uses thereof” (priority 2003, dated 2008).

Assay type in all cases: biochemical
Assay [1] deals with T1, E166Cf (fluorescein-labeled E166C mutant of β-lactamase I) (Bacillus cereus, UniProt P00809, E185C).
T1 construct: made in house; host or cells: B. subtilis 1A304 (φ105MU331); then labelled chemically
T1 sequence (P00809 28-306 E185C): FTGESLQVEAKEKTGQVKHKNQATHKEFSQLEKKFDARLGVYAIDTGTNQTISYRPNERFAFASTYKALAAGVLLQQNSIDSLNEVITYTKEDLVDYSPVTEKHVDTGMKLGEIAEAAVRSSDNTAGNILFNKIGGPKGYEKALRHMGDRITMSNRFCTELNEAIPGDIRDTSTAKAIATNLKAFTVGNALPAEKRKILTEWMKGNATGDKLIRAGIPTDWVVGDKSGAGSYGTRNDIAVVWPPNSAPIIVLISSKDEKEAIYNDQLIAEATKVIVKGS
Put plainly: Spectrophotometric substrate hydrolysis, steady-state kinetics. The procedure: (§1) The hydrolytic activities of the wild-type β-lactamase I, E166C and E166Cf mutants towards penicillin G, penicillin V and ampicillin (Sigma) were monitored by the spectrophotometric method. The spectrophotometric measurements were performed on a Perkin Elmer Lambda Bio20 UV/Vis spectrometer. Substrate hydrolysis was monitored at a fixed wavelength: 235 nm for ampicillin, 232 nm for penicillin G and penicillin V. The initial rate of substrate hydrolysis occurring within 5 min was determined in duplicate at each of 6 different substrate concentrations in 50 mM potassium phosphate buffer (pH 7.0) at 20° C. The initial rates determined were then treated as described in Reference 5 to calculate the Michaelis constants (Km) and turnover numbers (kcat) using non-linear regression analysis (equation 1):
(§2) [formula] where v is the initial rate of substrate hydrolysis, Vmax the maximum rate of reaction, [S] the initial substrate concentration, Km the Michaelis constant and kcat=Vmax/[Enzyme].
(§3) The measured steady-state kinetic parameters for hydrolysis of penicillin G, penicillin V and ampicillin by the wild-type β-lactamase I, E166C and E166Cf mutants are summarized in Table 1.
(§4) At high substrate concentration (1.0×10^−5 and 1.0×10^−4 M), the penicillin substrates rapidly occupy the active sites to form the ES complexes, thus switching on the fluorescence of the fluorescein labels instantaneously. […] This can be verified by the fact that the ‘plateau time’ (8 and 22 min for 1.0×10^−5 and 1.0×10^−4 M penicillin G respectively) is consistent with the ‘substrate hydrolysis time’ determined by spectrophotometric assays (7 and 20 min for 1.0×10^−5 and 1.0×10^−4 M penicillin G respectively). When most of the penicillin substrates have been hydrolyzed to carboxylic acids, the fluorescence signal of the labeled enzyme will decline subsequently.

Assay [2] addresses T2, E166C mutant of β-lactamase I (Bacillus cereus, UniProt P00809, E185C).
T2 construct: made in house; host or cells: B. subtilis 1A304 (φ105MU331)
T2 sequence (P00809 28-306 E185C): T1 sequence (P00809 28-306 E185C)
The assay is described as above. Particulars: 50 mM potassium phosphate buffer pH 7.0, 20° C. The protocol:
as §1, §2, §3

Assay [3] deals with T3, wild-type β-lactamase I (Bacillus cereus, UniProt P00809).
T3 construct: made in house; host or cells: B. subtilis 1A304 (φ105MU331)
The assay is described as above. Particulars: 50 mM potassium phosphate buffer pH 7.0, 20° C. The protocol:
as §1, §2, §3

In assay [4] the target is T4, E166Cf enzyme (Bacillus cereus, UniProt P00809, E185C).
T4 construct: made in house; host or cells: B. subtilis 1A304 (φ105MU331); then labelled chemically
T4 sequence (P00809 28-306 E185C): T1 sequence (P00809 28-306 E185C)
Put plainly: Time-resolved fluorescence of E166Cf enzyme with penicillins and cephalosporins. Particulars: E166Cf 1.2×10^−7 M. The procedure:
Fluorescence measurements of the E166Cf enzyme in the presence of penicillin G, penicillin V, ampicillin, cefuroxime, cefoxitin and moxalactam were performed on a Perkin Elmer LS50B spectrofluorometer. For time-resolved fluorescence measurement, excitation and emission wavelengths were set at 494 and 515 nm respectively. Both excitation and emission slit widths were set at 5 nm. All fluorescence measurements were performed at room temperature.
With penicillin G as substrate, the fluorescence signal of the E166Cf enzyme (1.2×10^−7 M) at 515 nm in 50 mM phosphate buffer (pH 7.0) increases as a function of the antibiotic concentration (FIG. 4). The time-resolved fluorescence signals of the E166Cf enzyme at 515 nm were also measured with various concentrations of penicillin G (FIG. 5). At low antibiotic concentration (1.0×10^−7 and 1.0×10^−6 M), the fluorescence intensity of the E166Cf enzyme increases gradually and then declines. At high antibiotic concentration (1.0×10^−5 and 1.0×10^−4 M), the fluorescence signal increases instantaneously and levels off to a plateau. The fluorescence signal stays at the plateau for a certain length of time and then declines afterwards. Similar results were obtained with penicillin V and ampicillin (FIGS. 6 and 7).
With cefuroxime, cefoxitin and moxalactam as substrates, the fluorescence intensities of the E166Cf enzyme (1.2×10^−7 M) at 515 nm in 50 mM phosphate buffer (pH 7.0) also increase as a function of antibiotic concentration (FIGS. 8 to 10).
as §4

Where [5] appears, read: E166Cf, 50 mM potassium phosphate buffer pH 7.0, 20° C.

Structures are written as SMILES.

T3 sequence (P00809 28-306): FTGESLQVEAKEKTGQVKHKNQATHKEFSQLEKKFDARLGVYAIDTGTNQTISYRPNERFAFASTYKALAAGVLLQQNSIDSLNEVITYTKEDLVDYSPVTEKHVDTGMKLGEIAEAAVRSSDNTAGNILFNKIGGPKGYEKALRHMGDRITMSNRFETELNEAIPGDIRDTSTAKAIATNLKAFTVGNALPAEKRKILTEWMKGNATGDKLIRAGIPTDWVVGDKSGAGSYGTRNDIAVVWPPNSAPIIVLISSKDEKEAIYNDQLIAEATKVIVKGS

For the compound `CC1(C)S[C@@H]2[C@H](NC(=O)Cc3ccccc3)C(=O)N2[C@H]1C(=O)O` [Penicillin G, penicillin G], the “substrate hydrolysis time determined by spectrophotometric assays” value in assay [1] (1.0×10^−4 M antibiotic) is given as 20 min; in assay [1] (1.0×10^−5 M antibiotic), 7 min. Moreover, the Km (commonly the substrate concentration at which the rate is half of its maximum) in assay [1] (setting [5]) worked out at 213 ± 11 µM; in assay [2] it was 72 ± 3 µM; in assay [3], 48 ± 3 µM. For the same compound, the kcat (in general, the number of substrate molecules converted per active site and unit of time at saturation) in assay [1] (setting [5]) was determined as 5.28 ± 0.09 s⁻¹; in assay [2], 2.07 ± 0.02 s⁻¹; in assay [3], 2612 ± 320 s⁻¹. The entries for the “plateau time of fluorescence signal” value in assay [4] (1.0×10^−4 M antibiotic) and in assay [4] (1.0×10^−5 M antibiotic) were 22 min and 8 min, respectively.
